{
  "source": "paper PMC11120720",
  "about": "“Linking Variability in Phytochemical Composition with Safety Profile of Thymus carnosus Boiss. Extracts: Effect of Major Compounds and Evaluation of Markers of Oxidative Stress and Cell Death” (International Journal of Molecular Sciences, 2024)",
  "key": {"Caco-2 cells [1]": {"test_system": "Caco-2 cells", "test": "Alamar Blue cell viability assay, Caco-2", "format": "cell-based, human", "details": "Homo sapiens, Caco-2", "experimental": "(§1) The safety profile of T. carnosus AD and HE extracts was evaluated in Caco-2 and HepG2 cells using an Alamar Blue® (Invitrogen; Alfagene, Lisboa, Portugal) assay. An initial screening was performed for all extracts at concentrations ranging between 100 and 1000 µg/mL. Due to the higher toxicity of the HE extracts, which was previously described for various extracts of Thymus species using the same extraction methods (e.g., T. mastichina and Thymus zygis), a different set of concentrations was used for the HE extracts (between 100 and 300 µg/mL for Caco-2 cells and 50 and 150 µg/mL for HepG2 cells). Figure 1 presents the data related to the cell viability assays in Caco-2 (panels A–E) and HepG2 cells (panels F–J) exposed to T. carnosus extracts, as indicated.\n(§2) The safety profile of T. carnosus extracts was assessed in Caco-2 and HepG2 cells. Caco-2 (human colon adenocarcinoma cell line) were obtained from CLS (Cell Lines Service, Eppelheim, Germany), and HepG2 (human hepatocellular carcinoma cell line) were obtained from ATCC (American Type Culture Collection, Manassas, VA, USA).\n(§3) Cell culture maintenance, handling, subculturing, and seeding were performed as described by Silva et al., 2020 [5], and cell viability was assessed using an Alamar Blue® assay, as described by Andreani et al., 2014 [64]. Concentrations ranged between 100 and 1000 µg/mL for AD extracts in both cell lines and 100 to 300 µg/mL or 50 to 150 µg/mL for HE extracts in Caco-2 and HepG2 cells, respectively. The effect of individual compounds on cell viability was assessed for concentrations ranging from 50 to 300 µM. All test solutions were prepared by diluting the samples in FBS-free culture media from the stock solutions described in Section 3.2, just prior to being used.\n(§4) The results are presented as mean ± SD of at least three independent assays. The calculation of IC50 values was performed as described by Silva et al., 2020 [5]. Data analysis, graphical design, and statistical analysis were performed using Microsoft Office Excel (Professional Plus 2019; Microsoft Corporation, Washington, DC, USA) and GraphPad Prism (Version 8; GraphPad Software Inc., San Diego, CA, USA). Flow cytometry data analysis was performed using BD Accuri™ C6 Software, version 1.0.264.21 (Becton Dickinson, San Diego, CA, USA)."}, "HepG2 cells [2]": {"test_system": "HepG2 cells", "test": "Alamar Blue cell viability assay, HepG2", "format": "cell-based, human", "details": "Homo sapiens, HepG2", "experimental": "as §1, §2, §3, §4"}, "Caco-2 cells [3]": {"test_system": "Caco-2 cells", "test": "Intracellular ROS (DCFDA, flow cytometry), Caco-2", "format": "cell-based", "details": "compound 50 µM, 24 h", "experimental": "(§5) The cells were then equally divided for each assay.\n(§6) Intracellular ROS level assessment was performed as described by Silva et al., 2022 [65], using dichlorodihydrofluorescein diacetate (DCFDA). Cells obtained in the previous step were centrifuged, the supernatant discarded, and 200 µL of DCFDA (10 µM in FBS-free DMEM) was added. Cells were incubated for 45 min (37 °C, in the dark), washed to remove excess probe, and resuspended in PBS for data acquisition."}, "HepG2 cells [4]": {"test_system": "HepG2 cells", "test": "Intracellular ROS (DCFDA, flow cytometry), HepG2", "format": "cell-based, human", "details": "compound 50 µM, 24 h", "experimental": "as §5, §6"}, "HepG2 cells [5]": {"test_system": "HepG2 cells", "test": "Mitochondrial membrane potential (JC-1, flow cytometry), HepG2", "format": "cell-based, human", "details": "compound 50 µM, 24 h", "experimental": "Flow cytometry was used to analyze the effect of T. carnosus extracts on intracellular ROS, modulation of mitochondrial membrane potential (MMP), cell cycle arrest, and apoptotic/necrotic cell death induction.\nBoth one- and two-color assays were performed using a BD Accuri™ C6 cytometer (Becton Dickinson, Franklin Lakes, NJ, USA), and 10,000 gated events were collected from each sample [1]. For flow cytometry assays, cells were handled as described previously but seeded at a density 5 × 10^4 cells/mL (750 μL/well) in 12-well plates. Caco-2 and HepG2 cells were incubated for 24 h with the extracts (100 µg/mL) or individual phytochemicals (50 µM) diluted in FBS-free culture media h. After incubation, test solutions were removed; the cells were washed with PBS and detached from the plates using trypsin-EDTA. Once transferred to centrifuge tubes, the cells were centrifuged (bench micro-centrifuge; 3000 rpm; 3 min), the supernatant was discarded, and a new wash cycle was performed. The cells were then equally divided for each assay. A negative control was used in all assays consisting of nonexposed cells incubated only with culture media.\nMitochondrial membrane potential (MMP) was evaluated using 5,5″,6,6″-tetrachloro-1,1″,3,3″-tetraethylbenzimidazolylcarbocyanineiodide (JC-1). Cells were processed as described for DCFDA but incubated with 200 µL of JC-1 (2 µM, in FBS-free DMEM) for 20 min (37 °C, in the dark)."}, "Caco-2 cells [6]": {"test_system": "Caco-2 cells", "test": "Cell cycle arrest (PI, flow cytometry), Caco-2", "format": "cell-based", "details": "compound 50 µM, 24 h; listed as UA", "experimental": "as §5\n(§7) Cell cycle arrest assessment was performed as described in [1]. Cells were processed as described above until cell detachment and centrifuged, after which the second washing step was performed with ice-cold PBS (0 °C). After centrifugation, the supernatant was discarded, and cells were fixed with 500 µL of ethanol:PBS solution (70:30, % v/v, previously cooled at −20 °C) for at least 4 h at −20 °C. After fixation, two washing cycles were performed: the first with ice-cold PBS (0 °C) and the second with room-temperature PBS, followed by the addition of 200 µL of a PBS solution containing PI (50 µg/mL), RNAse A (50 µg/mL), and Triton X-100 (0.1%). Cells were incubated for 30 min at 37 °C, and then cells were washed once with PBS to remove the staining solution. After resuspension in PBS, the data were acquired."}, "HepG2 cells [7]": {"test_system": "HepG2 cells", "test": "Cell cycle arrest (PI, flow cytometry), HepG2", "format": "cell-based, human", "details": "compound 50 µM, 24 h", "experimental": "as §5, §7"}, "Caco-2 cells [8]": {"test_system": "Caco-2 cells", "test": "Annexin V-FITC/PI apoptosis/necrosis, Caco-2", "format": "cell-based", "details": "compound 50 µM, 24 h", "experimental": "as §5\n(§8) For the assessment of apoptotic/necrotic cell death, an Annexin V-FITC (Thermo Fisher Scientific, Waltham, MA, USA) and propidium iodide (PI; Merck, Darmstadt, Germany) double-staining assay was used to evaluate the apoptotic/necrotic cell death induced by T. carnosus extracts and by individual phytochemicals, as described previously. Briefly, after detachment and washing, the supernatant was discarded, and 200 µL of Annexin V-FITC (1:200 dilution in Annexin-binding buffer [10 mM HEPES sodium salt, 150 mM NaCl, 5 mM KCl, 5 mM MgCl2, and 1.8 mM CaCl2; pH = 7.4]) was added. Cells were incubated for 20 min (room temperature, in the dark). After incubation, 5 µL of propidium iodide (PI; 50 µg/mL) was added, the cells were incubated for 5 min on ice (in the dark), and the data were acquired."}, "HepG2 cells [9]": {"test_system": "HepG2 cells", "test": "Annexin V-FITC/PI apoptosis/necrosis, HepG2", "format": "cell-based, human", "details": "compound 50 µM, 24 h", "experimental": "as §5, §8"}, "[10]": {"test_system": "hepatocarcinoma cells (HuH7)", "set-up": "method as in PMID 20415421", "details": "20-80 µM; cited from earlier work"}, "[11]": {"test_system": "human glioblastoma cells (DBTRG-05MG)", "set-up": "method as in PMID 25131308", "details": "cited from earlier work"}, "[12]": {"test_system": "colorectal cancer (HCT15) cells", "set-up": "method as in PMID 12046077", "details": "cited from earlier work"}, "[13]": {"set-up": "method as in PMID 31344882, PMID 26042707", "details": "cited from earlier work"}, "HepG2 cells [14]": {"test_system": "HepG2 cells", "details": "read-out: IC50, HepG2 cells; 72 h; cited from earlier work"}},
  "note": "Read-outs that look alike come from different tables or passages of the source.",
  "data": [
    {"smiles": "C[C@H]1[C@H](C)CC[C@]2(C(=O)O)CC[C@]3(C)C(=CC[C@@H]4[C@@]5(C)CC[C@H](O)C(C)(C)[C@@H]5CC[C@]43C)[C@H]12", "note": "[Ursolic acid, ursolic acid]", "values": [
      {"measurement": "IC50", "setting": "Caco-2 cells [1]; 24 h exposure, read-out: IC50 (µM) - Caco-2 cells: 24 h", "value": "59 ± 1.35", "unit": "µM"},
      {"measurement": "IC50", "setting": "Caco-2 cells [1]; 48 h exposure, read-out: IC50 (µM) - Caco-2 cells: 48 h", "value": "44.3 ± 2.31", "unit": "µM"},
      {"measurement": "IC50", "setting": "HepG2 cells [2]; 24 h exposure, read-out: IC50 (µM) - HepG2 cells: 24 h", "value": "79.6 ± 2.45", "unit": "µM"},
      {"measurement": "IC50", "setting": "HepG2 cells [2]; 48 h exposure, read-out: IC50 (µM) - HepG2 cells: 48 h", "value": "75.2 ± 1.97", "unit": "µM"},
      {"measurement": "change in intracellular ROS, Caco-2", "setting": "Caco-2 cells [3]", "value": "increase in ROS"},
      {"measurement": "change in intracellular ROS, HepG2", "setting": "HepG2 cells [4]", "value": "significant (p < 0.05) increase in intracellular HepG2 ROS levels"},
      {"measurement": "MMP modulation, HepG2", "setting": "HepG2 cells [5]", "value": "slight increase"},
      {"measurement": "cell cycle effect, Caco-2", "setting": "Caco-2 cells [6]", "value": "cell cycle arrest in G0/G1"},
      {"measurement": "cell cycle effect, HepG2", "setting": "HepG2 cells [7]", "value": "no UA-induced cytostatic effect"},
      {"measurement": "percentage of cells in late apoptosis, Caco-2", "setting": "Caco-2 cells [8]", "value": "~ 70%"},
      {"measurement": "percentage of cells in necrosis, Caco-2", "setting": "Caco-2 cells [8]", "value": "~ 12%"},
      {"measurement": "cell death induction, HepG2", "setting": "HepG2 cells [9]", "value": "only slightly increased (p < 0.05) the percentage of necrotic cells"},
      {"measurement": "MMP modulation, HuH7", "setting": "[10]", "value": "reduce MMP"},
      {"measurement": "cell death type, DBTRG-05MG", "setting": "[11]; 17.50 µM", "value": "mitochondria-dependent necrosis"},
      {"measurement": "MMP modulation, DBTRG-05MG", "setting": "[11]", "value": "transient hyperpolarization of the mitochondria membrane"},
      {"measurement": "cell cycle effect, HCT15", "setting": "[12]", "value": "cytostatic effect in the G0/G1 phase"},
      {"measurement": "lipophilicity", "setting": "[13]", "value": "high lipophilicity"},
      {"measurement": "water solubility", "setting": "[13]", "value": "poor water solubility"},
      {"measurement": "IC50", "setting": "HepG2 cells [14]", "value": 41, "unit": "µM"}
    ]}
  ]
}
